± gives the expanded uncertainty stated by the source.
How the values were obtained:
[1] = Crystal
[2] = Solid-liquid equilibrium temperature; details: Crystal

CCCCCCCC(=O)O [octanoic acid] gave a Normal melting temperature [1] of 16.71 ± 1.2 °C, a Solid-liquid equilibrium temperature ([2]; 20000 kPa) of 294.52 ± 1.2 K and a Solid-liquid equilibrium temperature ([2]; 40000 kPa) of 299.35 ± 1.2 K. It also gave a Solid-liquid equilibrium temperature ([2]; 60000 kPa) of 303.85 ± 1.2 K, a Solid-liquid equilibrium temperature ([2]; 80000 kPa) of 308.09 ± 1.2 K and a Solid-liquid equilibrium temperature ([2]; 90000 kPa) of 309.98 ± 1.2 K.

With CCCCCCCCCCCCCC(=O)O [tetradecanoic acid] the Normal melting temperature [1] was 54.4 ± 1.2 °C, the Solid-liquid equilibrium temperature ([2]; 20000 kPa) was 332.3 ± 1.2 K and the Solid-liquid equilibrium temperature ([2]; 40000 kPa) was 337.25 ± 1.2 K. It also gave a Solid-liquid equilibrium temperature ([2]; 60000 kPa) of 342.31 ± 1.2 K, a Solid-liquid equilibrium temperature ([2]; 70000 kPa) of 344.68 ± 1.2 K and a Solid-liquid equilibrium temperature ([2]; 80000 kPa) of 346.55 ± 1.2 K. The Solid-liquid equilibrium temperature ([2]; 90000 kPa) was 348.93 ± 1.2 K.

CCCCCCCCCCCC(=O)O [dodecanoic acid] gave a Normal melting temperature [1] of 43.03 ± 1.2 °C, a Solid-liquid equilibrium temperature ([2]; 20000 kPa) of 320.6 ± 1.2 K and a Solid-liquid equilibrium temperature ([2]; 40000 kPa) of 325.17 ± 1.2 K. The Solid-liquid equilibrium temperature ([2]; 60000 kPa) was 329.76 ± 1.2 K, the Solid-liquid equilibrium temperature ([2]; 70000 kPa) was 331.86 ± 1.2 K and the Solid-liquid equilibrium temperature ([2]; 80000 kPa) was 334.1 ± 1.2 K. It also gave a Solid-liquid equilibrium temperature ([2]; 90000 kPa) of 336.1 ± 1.2 K.

From the NIST ThermoML archive (doi:10.1016/j.fluid.2007.02.007)
